Experimental data as given in patent US9012651B2, “TRPV3 modulators” (AbbVie Inc., priority 2011, dated 2015).

Each compound was assayed against human TRPV3 receptors (Homo sapiens (Human), UniProt Q8NET8) (assay: Calcium flux assay (FLIPR TETRA), inhibition of the 2-APB response). Conditions: recombinant HEK293 cells stably expressing TRPV3, Calcium-4 dye, 2-APB at its EC80.
Assay type: cell-based
Procedure: (i) In Vitro Methods-Calcium Flux Assays:
Experiments were conducted using the FLIPR^TETRA®. On the day prior to the experiment, recombinant HEK293 cells that stably express human and mouse TRPV3 were removed from tissue culture flasks and plated in growth medium at 20,000 cells/well into black-walled clear-bottom 384-well Biocoat™ poly-D-lysine assay plates (BD Biosciences, Bedford, Mass.) using a Multidrop® dispenser (ThermoScientific, Waltham, Mass.). […] Cells were incubated for 90-120 minutes in the dark. Compounds were dissolved in DMSO to prepare a 10 mM stock solution. The intensity of the fluorescence was captured and digitally transferred to an interfaced PC. The peak increase in fluorescence over baseline (relative fluorescence units) was calculated and expressed as the percentage of the maximal 2-APB (2-aminoethoxyldiphenyl borate) response (in the absence of compound).

Chain of human TRPV3 receptors (Q8NET8 whole entry): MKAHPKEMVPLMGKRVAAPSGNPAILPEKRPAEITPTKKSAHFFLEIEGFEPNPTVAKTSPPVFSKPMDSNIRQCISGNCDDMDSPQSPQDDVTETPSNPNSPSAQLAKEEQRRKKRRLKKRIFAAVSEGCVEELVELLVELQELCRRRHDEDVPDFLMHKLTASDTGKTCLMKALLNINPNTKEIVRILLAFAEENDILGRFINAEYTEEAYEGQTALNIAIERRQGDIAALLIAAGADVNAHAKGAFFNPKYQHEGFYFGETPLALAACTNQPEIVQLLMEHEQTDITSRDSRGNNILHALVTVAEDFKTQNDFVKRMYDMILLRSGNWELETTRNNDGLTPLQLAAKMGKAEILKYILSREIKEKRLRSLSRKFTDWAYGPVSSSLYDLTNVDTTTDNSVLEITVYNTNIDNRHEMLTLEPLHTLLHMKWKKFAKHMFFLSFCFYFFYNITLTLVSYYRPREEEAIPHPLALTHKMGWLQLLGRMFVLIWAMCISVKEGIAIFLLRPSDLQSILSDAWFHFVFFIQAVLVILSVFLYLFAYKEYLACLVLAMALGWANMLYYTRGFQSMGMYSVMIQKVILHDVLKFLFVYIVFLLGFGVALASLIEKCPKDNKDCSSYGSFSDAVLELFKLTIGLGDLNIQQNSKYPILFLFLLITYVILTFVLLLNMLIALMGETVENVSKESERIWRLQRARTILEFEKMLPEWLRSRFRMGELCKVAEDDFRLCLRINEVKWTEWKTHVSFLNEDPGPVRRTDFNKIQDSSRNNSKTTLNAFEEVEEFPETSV

IC50 [µM] | SMILES
2.6 | CC(C)(CO)CNCc1cccc(-c2ccc(C(F)(F)F)cc2)n1 [Example 8, 2,2-dimethyl-3-[({6-[4-(trifluoromethyl)phenyl]pyridin-2-yl}methyl)amino]propan-1-ol]
3.81 | CC[C@H](C)[C@@H](CO)NCc1cccc(-c2ccc(C(F)(F)F)cc2)n1 [Example 2, (2S,3S)-3-methyl-2-[({6-[4-(trifluoromethyl)phenyl]pyridin-2-yl}methyl)amino]pentan-1-ol]
0.95 | CC(C)[C@H](CO)NCc1nc(-c2ccc(F)cn2)ccc1F [Example 36, (2R)-2-{[(5,5′-difluoro-2,2′-bipyridin-6-yl)methyl]amino}-3-methylbutan-1-ol]
0.26 | COc1cc(-c2ccc(F)c(CN[C@@H](CO)C(C)C)n2)cc(F)c1F [Example 283, (2R)-2-({[6-(3,4-difluoro-5-methoxyphenyl)-3-fluoropyridin-2-yl]methyl}amino)-3-methylbutan-1-ol]
> 20 | C[C@@H](O)CNCc1ccnc(-c2ccc(C(F)(F)F)cc2)n1 [Example 183, (2R)-1-[({2-[4-(trifluoromethyl)phenyl]pyrimidin-4-yl}methyl)amino]propan-2-ol]
1.84 | CC(C)[C@H](CO)NCc1nc(-c2cccc(Cl)c2)ccc1F [Example 15, (2R)-2-({[6-(3-chlorophenyl)-3-fluoropyridin-2-yl]methyl}amino)-3-methylbutan-1-ol]
15.3 | COc1ccc(-c2ccc(C(F)(F)F)nc2)nc1CN[C@@H](CO)C(C)C [Example 112, (2R)-2-({[5-methoxy-6′-(trifluoromethyl)-2,3′-bipyridin-6-yl]methyl}amino)-3-methylbutan-1-ol]
2.94 | CC(C)[C@H](CO)NCc1ccnc(-c2ccc(C(F)(F)F)nc2)n1 [Example 184, (2R)-3-methyl-2-[({2-[6-(trifluoromethyl)pyridin-3-yl]pyrimidin-4-yl}methyl)amino]butan-1-ol]
> 20 | CC(C)[C@@H](CO)NCc1nc(-c2ccc(C(F)(F)F)nc2)ccc1F [Example 35, (2S)-2-({[5-fluoro-6′-(trifluoromethyl)-2,3′-bipyridin-6-yl]methyl}amino)-3-methylbutan-1-ol]
0.25 | Cc1cc(-c2ccc(F)c(CN[C@@H](CO)C(C)C)n2)ccc1F [Example 280, (2R)-2-({[3-fluoro-6-(4-fluoro-3-methylphenyl)pyridin-2-yl]methyl}amino)-3-methylbutan-1-ol]
0.68 | OCC1(NCc2nc(-c3ccc(C(F)(F)F)cc3)ccc2F)CCCCC1 [Example 81, {1-[({3-fluoro-6-[4-(trifluoromethyl)phenyl]pyridin-2-yl}methyl)amino]cyclohexyl}methanol]
0.79 | CC(C)[C@H](CO)NCc1nc(-c2cc(C(F)(F)F)nn2C)ccc1F [Example 291, (2R)-2-[({3-fluoro-6-[1-methyl-3-(trifluoromethyl)-1H-pyrazol-5-yl]pyridin-2-yl}methyl)amino]-3-methylbutan-1-ol]
> 20 | CC(C)[C@H](CO)NCc1nc(-c2ccnn2C)ccc1F [Example 252, (2R)-2-({[3-fluoro-6-(1-methyl-1H-pyrazol-5-yl)pyridin-2-yl]methyl}amino)-3-methylbutan-1-ol]
> 20 | CC(C)(CO)NCc1ccnc(-c2ccc(C(F)(F)F)cc2)n1 [Example 136, 2-methyl-2-[({2-[4-(trifluoromethyl)phenyl]pyrimidin-4-yl}methyl)amino]propan-1-ol]
2.97 | CCN(CC)C(=O)c1cccc(-c2ccc(F)c(CN[C@@H](CO)C(C)C)n2)c1 [Example 41, N,N-diethyl-3-[5-fluoro-6-({[(2R)-1-hydroxy-3-methylbutan-2-yl]amino}methyl)pyridin-2-yl]benzamide]
0.16 | CC(C)[C@H](CO)NCc1nc(N2Cc3ccccc3C2)ccc1F [Example 71, (2R)-2-({[6-[1,3-dihydro-2H-isoindol-2-yl)-3-fluoropyridin-2-yl]methyl}amino)-3-methylbutan-1-ol]
0.17 | CC(C)[C@H](CO)NCc1nc(-c2ccc(C(F)(F)F)s2)ccc1F [Example 290]
0.54 | CC(C)[C@@H](NCc1nc(-c2ccc(C(F)(F)F)nc2)ccc1F)C(C)O (stereo partly drawn) [Example 108, (3R)-3-({[5-fluoro-6′-(trifluoromethyl)-2,3′-bipyridin-6-yl]methyl}amino)-4-methylpentan-2-ol]
> 20 | O[C@@H]1CCC[C@@H]1NCc1ccnc(-c2ccc(C(F)(F)F)cc2)n1 [Example 173, (1R,2S)-2-[({2-[4-(trifluoromethyl)phenyl]pyrimidin-4-yl}methyl)amino]cyclopentanol]

IC50 [µM] | SMILES
0.38 | CC(C)[C@H](CO)NCc1nc(/C=C/c2cccc(F)c2)ccc1F [Example 233, (2R)-2-[({3-fluoro-6-[(E)-2-(3-fluorophenyl)ethenyl]pyridin-2-yl}methyl)amino]-3-methylbutan-1-ol]
3.02 | OC[C@H](NCc1nc(-c2ccc(C(F)(F)F)nc2)ccc1F)C1CC1 [Example 75, (2R)-2-cyclopropyl-2-({[5-fluoro-6′-(trifluoromethyl)-2,3′-bipyridin-6-yl]methyl}amino)ethanol]
> 20 | CC[C@H](CO)NCc1ccnc(-c2ccc(C(F)(F)F)cn2)n1 [Example 194, (2R)-2-[({2-[5-(trifluoromethyl)pyridin-2-yl]pyrimidin-4-yl}methyl)amino]butan-1-ol]
> 20 | OCC1(CNCc2ccnc(-c3ccc(C(F)(F)F)cc3)n2)COC1 [Example 160]
0.66 | CC(C)[C@H](CO)NCc1nc(C2CCCN(C(=O)OC(C)(C)C)C2)ccc1F (stereo partly drawn) [Example 219, tert-butyl 3-[5-fluoro-6-({[(2R)-1-hydroxy-3-methylbutan-2-yl]amino}methyl)pyridin-2-yl]piperidine-1-carboxylate]
0.76 | CC(C)[C@H](CO)NCc1nc(-c2cccc(S(=O)(=O)N3CCOCC3)c2)ccc1F [Example 54, (2R)-2-[({3-fluoro-6-[3-(morpholin-4-ylsulfonyl)phenyl]pyridin-2-yl}methyl)amino]-3-methylbutan-1-ol]
> 20 | OC(CNCc1ccnc(-c2ccc(C(F)(F)F)cc2)n1)c1ccccc1 (stereo not drawn) [Example 182, 1-phenyl-2-[({2-[4-(trifluoromethyl)phenyl]pyrimidin-4-yl}methyl)amino]ethanol]
0.39 | CC(C)[C@H](CO)NCc1nc(-c2ccc(Cl)cc2)ccc1F [Example 42, (2R)-2-({[6-(4-chlorophenyl)-3-fluoropyridin-2-yl]methyl}amino)-3-methylbutan-1-ol]
> 20 | OC[C@@H](Cc1ccccc1)NCc1ccnc(-c2ccc(C(F)(F)F)cc2)n1 [Example 140, (2R)-3-phenyl-2-[({2-[4-(trifluoromethyl)phenyl]pyrimidin-4-yl}methyl)amino]propan-1-ol]
> 20 | CC(C)(CO)CNCc1ccnc(-c2ccc(C(F)(F)F)cc2)n1 [Example 156, 2,2-dimethyl-3-[({2-[4-(trifluoromethyl)phenyl]pyrimidin-4-yl}methyl)amino]propan-1-ol]
0.5 | CCN(CC)S(=O)(=O)c1cccc(-c2ccc(F)c(CN[C@@H](CO)C(C)C)n2)c1 [Example 51, N,N-diethyl-3-[5-fluoro-6-({[(2R)-1-hydroxy-3-methylbutan-2-yl]amino}methyl)pyridin-2-yl]benzenesulfonamide]
1.11 | CC(C)[C@H](CO)NCc1nc(-c2cccc(C(F)(F)F)c2)ccc1F [Example 16, (2R)-2-[({3-fluoro-6-[3-(trifluoromethyl)phenyl]pyridin-2-yl}methyl)amino]-3-methylbutan-1-ol]
8.55 | O[C@@H]1CCCC[C@@H]1NCc1nc(-c2ccc(C(F)(F)F)nc2)ccc1F [Example 123, (1R,2S)-2-({[5-fluoro-6′-(trifluoromethyl)-2,3′-bipyridin-6-yl]methyl}amino)cyclohexanol]
7.83 | C[C@H](CO)NCc1ccnc(-c2ccc(C(F)(F)F)cc2)n1 [Example 137, (2R)-2-[({2-[4-(trifluoromethyl)phenyl]pyrimidin-4-yl}methyl)amino]propan-1-ol]
> 20 | C[C@H](O)[C@@H](CO)NCc1ccnc(-c2ccc(C(F)(F)F)cc2)n1 [Example 151, (2R,3S)-2-[({2-[4-(trifluoromethyl)phenyl]pyrimidin-4-yl}methyl)amino]butane-1,3-diol]
1.53 | CC(C)[C@H](CO)NCc1nc(N2CCC(F)(F)CC2)ncc1F [Example 231, (2R)-2-({[2-(4,4-difluoropiperidin-1-yl)-5-fluoropyrimidin-4-yl]methyl}amino)-3-methylbutan-1-ol]
0.27 | CC(C)[C@H](CO)NCc1nc(N2Cc3ccc(F)cc3C2)ccc1F [Example 93, (2R)-2-({[3-fluoro-6-(5-fluoro-1,3-dihydro-2H-isoindol-2-yl)pyridin-2-yl]methyl}amino)-3-methylbutan-1-ol]
0.51 | CC[C@@H](NCc1nc(-c2ccc(C(F)(F)F)nc2)ccc1F)C(C)O (stereo partly drawn) [Example 115, (3R)-3-({[5-fluoro-6′-(trifluoromethyl)-2,3′-bipyridin-6-yl]methyl}amino)pentan-2-ol]
1.07 | Cc1ccc(-c2ccc(C(F)(F)F)nc2)nc1CN[C@@H](CO)C(C)C [Example 111, (2R)-3-methyl-2-({[5-methyl-6′-(trifluoromethyl)-2,3′-bipyridin-6-yl]methyl}amino)butan-1-ol]

SMILES | IC50 [µM]
CC(C)(CO)NCc1cccc(-c2cccc([Si](C)(C)C)c2)n1 [Example 237, 2-methyl-2-[({6-[3-(trimethylsilyl)phenyl]pyridin-2-yl}methyl)amino]propan-1-ol] | 5.75
